# Data from US9820481B2, “Encapsulation of active ingredients and method of making” (Arch Chemicals, Inc., priority 2013, dated 2017).
# Test: Degradation temperature by thermal gravimetric analysis (TGA) or differential scanning calorimetry (DSC)
# Type: physicochemical
# Protocol: The degradation temperature was determined by thermal gravimetric analysis (TGA) or differential scanning calorimetry (DSC).
substance,measurement,value
zinc pyrithione [A (comp)],Degradation Temp,265 °C
